Measurements from US4576947A, “Pharmaceutical compositions” (Hoechst Aktiengesellschaft, priority 1972, dated 1986).

Legend:
[1] = tested on: cerebral blood flow of cats; experiment: Investigation of cerebral blood flow of cats (heat-conducting thermoprobe according to Hensel); assay type: in vivo; details: for Change of blood perfusion half-value time: action time; for Change of blood perfusion Δ λ: heat transfer factor λ
Experimental: The test animals are cats under chloralose urethane narcosis (70+200 mg/kg i.p.). The top of the skull is opened in the area of the frontal gyrus marginalis or suprasylvicus. […] The action time is given as the half value time and the intensity of action is determined according to Golenhofen et al. as a heat transfer factor λ. The recording was performed with thermoprobes using a two-channel Pluvograph of Hartmann & Braun, Frankfurt am Main, Germany. Other circulation parameters recorded at the same time were fed to a Hellige multi-channel recorder.

[2] = Toxicity in mg/kg (mouse); details: in vivo
cerebral blood flow = experiment: Cerebral blood flow, statements in the description; assay type: in vivo; details: in words
[3] = tested on: rate of blood circulation; details: background statement, in words; cited from earlier work
[4] = background statement, in words; cited from earlier work

SMILES | Change of blood perfusion half-value time ([1]; 5 mg/kg i.v.) | Change of blood perfusion Δ λ ([1]; 5 mg/kg i.v.) | Change of blood perfusion half-value time ([1]; 10 mg/kg i.v.) | Change of blood perfusion Δ λ ([1]; 10 mg/kg i.v.) | LD50 ([2]; ip) | Change of blood perfusion half-value time ([1]; 50 mg/kg i.v.) | Change of blood perfusion Δ λ ([1]; 50 mg/kg i.v.) | Change of blood perfusion half-value time ([1]; 100 mg/kg i.v.) | Change of blood perfusion Δ λ ([1]; 100 mg/kg i.v.) | pharmacological activity [3] | water solubility and/or toxicity versus theobromine, theophylline and trialkylxanthines [4] | also measured
CC(O)CCCCn1c(=O)c2c(ncn2C)n(C)c1=O (stereo not shown) [1-(5-hydroxyhexyl)-3,7-dimethylxanthine] | 5.0 min | +1.55 | 3.5 min | +2.65 |  |  |  |  |  |  |  | Change of blood perfusion half-value time ([1]; 3 mg/kg i.v.): 4.3 min; Change of blood perfusion Δ λ ([1]; 3 mg/kg i.v.): +1.80; LD50 ([2]; iv): 195 mg/kg
CC(O)CCCCCn1cnc2c1c(=O)n(C)c(=O)n2C (stereo not shown) [1,3-dimethyl-7-(6-hydroxyheptyl)-xanthine] | 1.8 min | +1.17 |  |  | 250 to 500 mg/kg |  |  |  |  |  |  | Change of blood perfusion half-value time ([1]; 1 mg/kg i.v.): 0.6 min; Change of blood perfusion Δ λ ([1]; 1 mg/kg i.v.): +0.70; Change of blood perfusion half-value time ([1]; 2 mg/kg i.v.): 1.2 min; Change of blood perfusion Δ λ ([1]; 2 mg/kg i.v.): +0.42
Cn1c(=O)c2[nH]cnc2n(C)c1=O.NCCN [theophylline-ethylenediamine, 1,3-dimethylxanthine-ethylene-diamine] | 3.3 min | +0.18 | 1.7 min | +0.53 | 217 mg/kg |  |  |  |  |  |  | Change of blood perfusion half-value time ([1]; 1 mg/kg i.v.): 1.8 min; Change of blood perfusion Δ λ ([1]; 1 mg/kg i.v.): +0.19; Change of blood perfusion half-value time ([1]; 2 mg/kg i.v.): 1.8 min; Change of blood perfusion Δ λ ([1]; 2 mg/kg i.v.): +0.15; action on cerebral blood flow (cerebral blood flow): increases the cerebral blood flow, but only to a limited extent and only for a short time
Cn1c(=O)c2c(ncn2CCO)n(C)c1=O [7-(2-hydroxyethyl)-1,3-dimethylxanthine] | 0.23 min | -0.50 | 0.50 min | -1.33 |  | 7.17 min | -5.33 | 8.00 min | -6.00 |  |  | Change of blood perfusion half-value time ([1]; 25 mg/kg i.v.): 6.73 min; Change of blood perfusion Δ λ ([1]; 25 mg/kg i.v.): -2.17
CC(O)Cn1c(=O)c2c(ncn2C)n(C)c1=O (stereo not shown) [1-(2-hydroxypropyl)-3,7-dimethylxanthine] | 0.50 min | -0.25 | 1.50 min | -0.50 |  | 17.5 min | -5.25 | 6.5 min | -10.00 | reduced pharmacological activity | greater degree of water solubility and/or lower toxicity than theobromine,theophylline and trialkylxanthines | 
CC(O)CCCCn1cnc2c1c(=O)n(C)c(=O)n2C (stereo not shown) [1,3-dimethyl-7-(5-hydroxyhexyl)-xanthine] | 1.8 min | +0.18 |  |  | 250 to 500 mg/kg |  |  |  |  |  |  | 
CC(O)Cn1cnc2c1c(=O)n(C)c(=O)n2C (stereo not shown) [7-(2-Hydroxypropyl)-1,3-dimethyl-xanthine] |  |  |  |  |  |  |  |  |  | reduced pharmacological activity | greater degree of water solubility and/or lower toxicity than theobromine,theophylline and trialkylxanthines | 
Cn1c(=O)c2c(ncn2CC(O)CO)n(C)c1=O (stereo not shown) [7-(2,3-dihydroxypropyl)-1,3-dimethylxanthine] |  |  | 1.7 min |  |  | 3.0 min | +0.20 | 3.0 min | -0.05 | reduced pharmacological activity | greater degree of water solubility and/or lower toxicity than theobromine,theophylline and trialkylxanthines | Change of blood perfusion half-value time ([1]; 25 mg/kg i.v.): 6.0 min; Change of blood perfusion Δ λ ([1]; 25 mg/kg i.v.): -0.23
